Assay results taken from ChEMBL document CHEMBL5661943, “ASAP - In vitro antiviral effect” (2024).
Values joined by “and” are separate entries in the source; they are usually repeats but may differ in a detail not shown here. Equal values may be shown once.

What was measured:
Zika virus [1] = experiment: (§1) Functional CPE-based assay to measure dose dependent changes in antiviral-drug inhibitory efficacy against Zika virus MR766 in Vero E6 miRFP670 cells. Cells are treated with antiviral candidates that are serially diluted. EC50 is reported via analysis of MTS assay as a readout of CPE. The assay has been performed by KU Leuven.; assay type: organism-based, Chlorocebus sabaeus, Vero C1008; conditions: Zika virus; for EC50: Vero C1008
dengue virus type 2 [2] = experiment: Functional assay to measure dose dependent changes in antiviral-drug inhibitory efficacy against Dengue virus type 2 New Guinea C in Vero E6 miRFP670 cells (cotreated with P-gp inhibitor, CP100356). Cells are treated with antiviral candidates that are serially diluted, following infection, cells are fixed. EC50 is reported via analysis of fluorescence intensity using high-content imager. The …; assay type: organism-based, Chlorocebus sabaeus, Vero C1008; conditions: for EC90: P-gp concentration 500 nM, P-gp inhibitor CP100356
Zika virus [3] = experiment: EC50 is reported via analysis of immunofluorescence staining. The assay has been performed by Icahn School of Medicine at Mount Sinai.; assay type: functional, organism-based, Chlorocebus sabaeus, VeroE6/TMPRSS2; conditions: for EC90: P-gp concentration 2 uM, P-gp inhibitor Elacidar
Zika virus [4] = experiment: as §1, with “cells (cotreated with P-gp inhibitor, CP100356).” for “cells.”; assay type: organism-based, Chlorocebus sabaeus, Vero C1008; conditions: for EC90: Baseline response 0 %, Maximum response 100 %, P-gp concentration 500 nM, P-gp inhibitor CP100356
dengue virus type 2 [5] = experiment: Functional immunofluorescence assay to measure dose dependent changes in antiviral-drug inhibitory efficacy against Dengue virus type 2 Thailand/16681/84 in Vero E6/TMPRSS2 cells (cotreated with P-gp inhibitor, Elacridar). Cells are treated with antiviral candidates that are serially diluted, following infection, cells are fixed. EC50 is reported via analysis of immunofluorescence staining. The assay has been performed by Icahn School of Medicine at Mount Sinai.; assay type: organism-based, Chlorocebus sabaeus, VeroE6/TMPRSS2; conditions: Dengue virus; for EC50: VeroE6/TMPRSS2; for EC90: P-gp concentration 2 uM, P-gp inhibitor Elacidar

SMILES: O=C(Nc1cc(Cl)cc(C(=O)Nc2cccc([C@H]3C[C@H]3C(=O)O)c2)c1)OCc1ccccc1
- EC50 (Zika virus [1]): > 50 µM
- EC90 (Zika virus [1]; Vero C1008, Baseline response 0 %, Hill slope 7.946, Maximum measured 10.264 %, Maximum response 100 %, Minimum measured -1.789 %, R squared 0.722): > 50 µM
- EC50 (dengue virus type 2 [2]; Dengue virus, Vero C1008): > 50 µM
- EC90 (dengue virus type 2 [2]; Dengue virus, Vero C1008, Maximum measured 111.056 %, Minimum measured 105.114 %): > 50 µM

SMILES: COc1cc(-c2cc(Cl)cc(NC(=O)OCc3ccccc3)c2)c(OC)cc1CC(=O)O
- EC50 (Zika virus [1]): > 50 µM
- EC90 (Zika virus [1]; Vero C1008, Baseline response 0 %, Hill slope 0.25, Maximum measured 21.22 %, Maximum response 100 %, Minimum measured 1.079 %, R squared 0.113): > 50 µM

SMILES: CC(C)(C)c1cc(Br)cc(C(=O)Nc2ccc3c(c2)CNC3)c1
- EC50 (Zika virus [1]): > 50 µM
- EC90 (Zika virus [1]; Vero C1008, Baseline response 0 %, Hill slope -3.526, Maximum measured 2.777 %, Maximum response 100 %, Minimum measured -2.992 %, R squared 0.044): > 50 µM

SMILES: CN1Cc2ccc(NC(=O)c3cc(Cl)cc4[nH]ncc34)cc2C1
- EC50 (Zika virus [1]): > 50 µM
- EC90 (Zika virus [1]; Vero C1008, Baseline response 0 %, Hill slope -0.359, Maximum measured 1.713 %, Maximum response 100 %, Minimum measured -2.397 %, R squared 0.026): > 50 µM

SMILES: O=C(Nc1cc(Cl)cc([C@H]2[C@H](CO)[C@@H]2c2cccc(-c3nn[nH]n3)c2)c1)OCc1ccccc1
- EC50 (Zika virus [1]): > 50 µM
- EC90 (Zika virus [1]; Vero C1008, Baseline response 0 %, Hill slope -0.077, Maximum measured 3.793 %, Maximum response 100 %, Minimum measured 1.644 %, R squared 0.146): > 50 µM

SMILES: O=C(Nc1cc(Cl)cc(-c2cccc3c(C(=O)O)cccc23)c1)OCc1ccccc1
- EC50 (Zika virus [1]): > 50 µM
- EC90 (Zika virus [1]; Vero C1008, Maximum measured -0.778 %, Minimum measured -5.402 %): > 50 µM

SMILES: O=C(Nc1ccc2c(c1)CNCC2)c1cc(Cl)cc2[nH]ncc12
- EC50 (Zika virus [1]): > 50 µM
- EC90 (Zika virus [1]; Vero C1008, Maximum measured 0.588 %, Minimum measured -2.808 %): > 50 µM

SMILES: O=C(NCC(F)F)[C@H](Nc1ccc2c(c1)CNC2)c1cc(Cl)cc(C2CC2)c1
- EC90 (Zika virus [3]; Baseline response 0 %, Hill slope -0.396, Maximum measured 99.851 %, Maximum response 100 %, Minimum measured 40.832 %, R squared 0.557): > 5.56 µM
- EC90 (Zika virus [3]; Baseline response 0 %, Hill slope -0.815, Maximum measured 101.881 %, Maximum response 50 %, Minimum measured 25.102 %, R squared 0.285): > 5.56 µM
- EC90 (Zika virus [3]; Zika virus, VeroE6/TMPRSS2, Maximum measured 91.336 %, Minimum measured 34.975 %): > 1.85 µM
- EC90 (Zika virus [3]; Zika virus, VeroE6/TMPRSS2, Baseline response 0 %, Hill slope -0.205, Maximum measured 120.59 %, Maximum response 100 %, Minimum measured 43.549 %, R squared 0.084): > 5.56 µM
- EC90 (Zika virus [4]; EC90 CI (lower) 0 uM, EC90 CI (upper) 0 uM, Hill slope 19.422, Maximum measured 104.146 %, Minimum measured 1.001 %, R squared 0.972): 3.54 µM
- EC90 (Zika virus [4]; EC90 CI (lower) 1.312 uM, EC90 CI (upper) 1.931 uM, Hill slope 6.18, Maximum measured 105.591 %, Minimum measured 3.511 %, R squared 0.974): 1.59 µM
- EC90 (Zika virus [4]; EC90 CI (lower) 26.105 uM, EC90 CI (upper) 61.789 uM, Hill slope 1.533, Maximum measured 103.939 %, Minimum measured 1.936 %, R squared 0.959): 40.2 µM
- EC50 (Zika virus [4]; vero c1008): 9.58 µM and 3.16 µM and 1.11 µM
- EC50 (dengue virus type 2 [5]): > 50 µM
- EC90 (dengue virus type 2 [5]; VeroE6/TMPRSS2, Maximum measured 212.671 %, Minimum measured 62.173 %): > 50 µM
- EC50 (dengue virus type 2 [2]; Dengue virus, Vero C1008): > 50 µM
- EC90 (dengue virus type 2 [2]; Dengue virus, Vero C1008, Maximum measured 140.556 %, Minimum measured 63.358 %): > 50 µM
- EC90 (dengue virus type 2 [2]; Dengue virus, Vero C1008, Maximum measured 143.73 %, Minimum measured 67.897 %): > 25 µM
- EC90 (dengue virus type 2 [2]; Dengue virus, Vero C1008, Baseline response 0 %, Hill slope -0.993, Maximum measured 109.944 %, Maximum response 100 %, Minimum measured 57.337 %, R squared 0.512): > 50 µM
- EC50 (dengue virus type 2 [2]; vero c1008): > 25 µM

SMILES: O=C(NC[C@H]1CCCO1)[C@H](Nc1ccc2c(c1)CNC2)c1cc(Cl)cc(C2CC2)c1
- EC50 (Zika virus [3]; Zika virus, VeroE6/TMPRSS2): > 5.56 µM
- EC90 (Zika virus [3]; Zika virus, VeroE6/TMPRSS2, Maximum measured 140.093 %, Minimum measured 93.076 %): > 5.56 µM
- EC90 (Zika virus [3]; Zika virus, VeroE6/TMPRSS2, Baseline response 0 %, Hill slope 0.091, Maximum measured 92.664 %, Maximum response 100 %, Minimum measured 73.777 %, R squared 0.029): > 5.56 µM
- EC50 (Zika virus [4]; Zika virus, Vero C1008): > 25 µM
- EC90 (Zika virus [4]; Zika virus, Vero C1008, Hill slope 2.187, Maximum measured 41.665 %, Minimum measured -0.442 %, R squared 0.938): > 25 µM
- EC50 (dengue virus type 2 [5]): > 50 µM
- EC90 (dengue virus type 2 [5]; VeroE6/TMPRSS2, Maximum measured 244.293 %, Minimum measured 137.827 %): > 50 µM
- EC50 (dengue virus type 2 [2]; Dengue virus, Vero C1008): > 50 µM
- EC90 (dengue virus type 2 [2]; Dengue virus, Vero C1008, Baseline response 0 %, Hill slope -0.736, Maximum measured 108.993 %, Maximum response 100 %, Minimum measured 54.851 %, R squared 0.259): > 50 µM

SMILES: CC(=O)Nc1cc(Br)cc(C(=O)Nc2ccc3c(c2)CNC3)c1
- EC90 (Zika virus [3]; Baseline response 0 %, Hill slope -0.518, Maximum measured 97.567 %, Maximum response 50 %, Minimum measured 37.703 %, R squared 0.045): > 50 µM
- EC50 (Zika virus [3]; Zika virus, VeroE6/TMPRSS2): > 50 µM
- EC90 (Zika virus [3]; Zika virus, VeroE6/TMPRSS2, Baseline response 0 %, Hill slope -0.196, Maximum measured 132.114 %, Maximum response 100 %, Minimum measured 61.615 %, R squared 0.024): > 50 µM
- EC50 (Zika virus [4]; Zika virus, Vero C1008): > 50 µM
- EC90 (Zika virus [4]; Zika virus, Vero C1008, Hill slope -0.049, Maximum measured 5.994 %, Minimum measured 2.41 %, R squared 0.015): > 50 µM
- EC50 (dengue virus type 2 [5]): > 50 µM
- EC90 (dengue virus type 2 [5]; VeroE6/TMPRSS2, Maximum measured 175.614 %, Minimum measured 132.324 %): > 50 µM
- EC50 (dengue virus type 2 [2]; Dengue virus, Vero C1008): > 50 µM
- EC90 (dengue virus type 2 [2]; Dengue virus, Vero C1008, Baseline response 0 %, Hill slope 0.424, Maximum measured 105.264 %, Maximum response 100 %, Minimum measured 74.207 %, R squared 0.146): > 50 µM
